ChEMBL document CHEMBL1155907, “Structure-activity relationship of flavonoids as influenza virus neuraminidase inhibitors and their in vitro anti-viral activities” (Bioorg Med Chem, 2008)

Tests used:
Neuraminidase [1] = molecular target: T1, Neuraminidase (Influenza A virus, UniProt B4URF0)
Neuraminidase [2] = molecular target: T1, Neuraminidase; parameters: species or system Influenza B virus
Neuraminidase [3] = molecular target: T1, Neuraminidase; parameters: species or system Influenza A virus (A/Puerto Rico/8/1934(H1N1))
[4] = Cytotoxicity against MDCK cells by MTT assay; assay type: cell-based, Canis lupus familiaris; details: dog
Influenza A virus = assay: Antiviral activity against Influenza A virus Jinan/15/90 H3N2 assessed as reduction of virus-induced cytopathic effect; assay type: functional, organism-based
[5] = Cytotoxicity against MDCK cells assessed as maximal non-cytotoxic concentration by MTT assay; assay type: cell-based, Canis lupus familiaris; details: dog, read-out: MNCC
[6] = Selectivity index, ratio of CC50 to MDCK cells to IC50 to Influenza A Jinan/15/90 H3N2 virus; assay type: functional

T1 sequence (B4URF0 whole entry): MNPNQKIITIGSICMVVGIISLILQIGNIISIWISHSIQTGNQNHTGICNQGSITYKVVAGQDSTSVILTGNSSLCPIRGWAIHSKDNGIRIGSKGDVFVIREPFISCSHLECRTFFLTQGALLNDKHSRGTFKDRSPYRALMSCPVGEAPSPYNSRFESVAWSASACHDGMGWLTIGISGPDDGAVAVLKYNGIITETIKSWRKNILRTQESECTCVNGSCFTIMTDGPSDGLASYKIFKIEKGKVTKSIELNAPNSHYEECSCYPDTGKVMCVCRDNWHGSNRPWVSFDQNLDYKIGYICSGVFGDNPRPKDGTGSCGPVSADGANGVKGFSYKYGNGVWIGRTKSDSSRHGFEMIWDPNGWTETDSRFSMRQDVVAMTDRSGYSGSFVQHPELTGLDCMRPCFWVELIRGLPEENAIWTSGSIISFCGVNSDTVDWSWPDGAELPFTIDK

SMILES	IC50 (Neuraminidase [1]) [µM]	IC50 (Neuraminidase [2]) [µM]	IC50 (Neuraminidase [3]) [µM]	CC50 [4] [µM]	IC50 (Influenza A virus) [µM]	MNTC [5] [µM]	Ratio CC50/IC50 [6]
O=C1/C(=C\c2ccccc2)Oc2cc(O)ccc21	73.3	86.6	72				
O=C1/C(=C\c2ccc(O)cc2)Oc2cc(O)cc(O)c21	22.3	25.4	25.6	> 741	> 741	> 741	
O=C1/C(=C\c2ccc(O)cc2)Oc2cc(O)ccc21	22.1	22.9	22	152	15.7	87.5	9.64
Oc1cc(O)c2c(c1)O[C@@H](c1ccc(O)c(O)c1)[C@@H](O)C2 [(+)-EPICATECHIN]	> 100	> 100	> 100				
O=c1cc(-c2ccc(O)cc2)oc2cc(O)cc(O)c12 [APIGENIN]	28.9	45.7	31.6	39.6	4.74	7.63	8.35
Oc1cc(O)c2c(c1)O[C@H](c1ccc(O)c(O)c1)[C@@H](O)C2 [CATECHIN]	> 100	> 100	> 100				
O=c1cc(-c2ccccc2)oc2cc(O)cc(O)c12 [CHRYSIN]	33.4	52.9	45.7				
O=c1c(-c2ccc(O)cc2)coc2cc(O)ccc12 [DAIDZEIN]	26.6	46.8	37.1	> 787	> 787	> 787	
COc1ccc(-c2coc3cc(O)ccc3c2=O)cc1 [FORMONONETIN]	> 100	> 100	> 100				
O=c1cc(-c2ccc(O)c(O)c2)oc2cc(O[C@@H]3O[C@H](CO)[C@@H](O)[C@H](O)[C@H]3O)cc(O)c12 [GALUTEOLIN]	52.2	58.6	47.4	> 1120	> 1120	> 1120	
O=c1c(-c2ccc(O)cc2)coc2cc(O)cc(O)c12 [GENISTEIN]	134	83.3	77.1				
COc1ccc([C@@H]2CC(=O)c3c(O)cc(O[C@@H]4O[C@H](CO[C@@H]5O[C@@H](C)[C@H](O)[C@@H](O)[C@H]5O)[C@@H](O)[C@H](O)[C@H]4O)cc3O2)cc1O [HESPERIDIN]	> 100	> 100	> 100				
COc1c(O)cc2oc(-c3ccc(O)cc3)cc(=O)c2c1O [HISPIDULIN]	26	33.2	46.3	172	24.7	24.7	6.98
O=c1c(O)c(-c2ccc(O)cc2)oc2cc(O)cc(O)c12 [KAEMPFEROL]	38.1	46.4	58.6				
O=C1C[C@@H](c2ccc(O[C@@H]3O[C@H](CO)[C@@H](O)[C@H](O)[C@H]3O)cc2)Oc2cc(O)ccc21 [LIQUIRITIN]	> 100	> 100	> 100				
O=c1cc(-c2ccc(O)c(O)c2)oc2cc(O)cc(O)c12 [LUTEOLIN]	32.6	53.3	33.7	12.4	6.82	7.2	1.82
O=c1c(O)c(-c2cc(O)c(O)c(O)c2)oc2cc(O)cc(O)c12 [MYRICETIN]	46.2	75.4	82.6				
O=C1C[C@@H](c2ccc(O)cc2)Oc2cc(O)cc(O)c21 [NARINGENIN]	> 100	> 100	> 100				
CCC(CC)O[C@@H]1C=C(C(=O)O)C[C@H](N)[C@H]1NC(C)=O [OSELTAMIVIR CARBOXYLATE]				17.1	0.15	1.02	
O=c1c(O)c(-c2ccc(O)c(O)c2)oc2cc(O)cc(O)c12 [QUERCETIN]	87.6	67.5	58.4				
COc1cc(O)c2c(=O)c(O)c(-c3ccc(O)cc3)oc2c1 [RHAMNOCITRIN]	83.9	62	51.5				
NC(=O)c1ncn([C@@H]2O[C@H](CO)[C@@H](O)[C@H]2O)n1 [RIBAVIRIN]				> 512	25.6		>19.98
C[C@@H]1O[C@@H](OC[C@H]2O[C@@H](Oc3c(-c4ccc(O)c(O)c4)oc4cc(O)cc(O)c4c3=O)[C@H](O)[C@@H](O)[C@@H]2O)[C@H](O)[C@H](O)[C@H]1O [RUTIN]	87.7	> 100	52.2				
O=C(O)[C@H]1O[C@@H](Oc2cc3oc(-c4ccc(O)cc4)cc(=O)c3c(O)c2O)[C@H](O)[C@@H](O)[C@@H]1O [SCUTELLARIN]	47.3	59.9	50.6				
O=c1c(-c2ccc(O[C@@H]3O[C@H](CO)[C@@H](O)[C@H](O)[C@H]3O)cc2)coc2cc(O)cc(O)c12 [SOPHORICOSIDE]	> 100	> 100	> 100				
O=C1/C(=C/c2ccc(O)c(O)c2)Oc2cc(O)ccc21 [SULFURETIN]	51.2	36.2	29.6	27.4	> 9.15	9.15	
O=c1cc(-c2ccc(O)cc2)oc2c([C@@H]3O[C@H](CO)[C@@H](O)[C@H](O)[C@H]3O)c(O)cc(O)c12 [VITEXIN]	45.1	49.6	46.5				
